IC50, half-life and CLint scaled data for twelve compounds are collected here from patent EP4722213A1, “NITROGEN-CONTAINING FUNCTIONAL GROUP-SUBSTITUTED PYRIDAZINOPYRIDONE DERIVATIVE AND USE THEREOF” (Sichuan Huiyu Pharmaceutical Co., Ltd., priority 2023, dated 2024).

For one series, the target named is T1, SOS1 (Homo sapiens, UniProt Q07889).
T1 sequence (Q07889 1-1333): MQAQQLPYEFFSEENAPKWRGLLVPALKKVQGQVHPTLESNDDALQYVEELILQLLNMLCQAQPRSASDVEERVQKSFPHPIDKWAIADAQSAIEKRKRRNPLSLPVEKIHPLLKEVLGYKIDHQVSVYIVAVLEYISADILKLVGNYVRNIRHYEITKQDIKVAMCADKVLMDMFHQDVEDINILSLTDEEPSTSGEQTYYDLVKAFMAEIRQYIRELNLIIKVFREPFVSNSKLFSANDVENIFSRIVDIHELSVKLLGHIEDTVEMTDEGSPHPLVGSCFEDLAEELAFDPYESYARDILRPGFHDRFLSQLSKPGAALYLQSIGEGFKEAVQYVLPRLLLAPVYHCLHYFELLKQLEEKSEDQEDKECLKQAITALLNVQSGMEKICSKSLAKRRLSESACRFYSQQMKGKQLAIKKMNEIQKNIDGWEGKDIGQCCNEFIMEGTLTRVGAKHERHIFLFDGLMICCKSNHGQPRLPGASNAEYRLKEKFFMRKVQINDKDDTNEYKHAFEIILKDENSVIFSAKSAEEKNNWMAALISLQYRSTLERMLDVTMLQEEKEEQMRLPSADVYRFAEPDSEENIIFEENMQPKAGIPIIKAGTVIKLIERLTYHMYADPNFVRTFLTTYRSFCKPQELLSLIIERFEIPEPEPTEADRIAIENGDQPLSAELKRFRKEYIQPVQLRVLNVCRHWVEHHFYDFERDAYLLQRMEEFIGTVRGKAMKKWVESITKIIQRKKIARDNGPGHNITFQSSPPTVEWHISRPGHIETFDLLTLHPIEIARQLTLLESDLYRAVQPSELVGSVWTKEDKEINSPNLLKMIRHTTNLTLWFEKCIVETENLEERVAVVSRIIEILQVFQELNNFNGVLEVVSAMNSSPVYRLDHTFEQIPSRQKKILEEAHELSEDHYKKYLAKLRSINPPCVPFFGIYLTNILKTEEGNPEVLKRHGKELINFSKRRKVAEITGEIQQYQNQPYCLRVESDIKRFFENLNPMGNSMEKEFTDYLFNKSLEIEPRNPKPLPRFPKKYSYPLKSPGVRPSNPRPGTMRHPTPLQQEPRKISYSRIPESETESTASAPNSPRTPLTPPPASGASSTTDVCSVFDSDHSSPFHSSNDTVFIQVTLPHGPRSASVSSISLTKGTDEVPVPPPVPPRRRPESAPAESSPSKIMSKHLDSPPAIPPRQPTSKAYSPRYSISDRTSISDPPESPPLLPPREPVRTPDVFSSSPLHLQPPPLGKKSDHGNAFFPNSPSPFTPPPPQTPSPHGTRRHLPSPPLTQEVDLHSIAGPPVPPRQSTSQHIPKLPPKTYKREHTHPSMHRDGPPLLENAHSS
In words: biochemical.

Series [1] in a line: Rat liver microsomal metabolic stability. Format: in vitro ADME. To be noted: rat liver microsomes; for half-life at 1 µM: NADPH, 37°C; for CLint scaled at 1 µM: calculated from T1/2, fu defaulted to 1, read-out: CL(liver). From the text: Metabolic stability affects the clearance rate, half-life, and oral bioavailability of compounds in the body, and is one of the most important ADME drug-like properties of compounds. Hepatocyte microsomal stability assay is a commonly used method for studying metabolic stability. In the present disclosure, rat liver microsomes are used to determine and investigate the metabolic stability of compounds.
Preparation of compound stock solution: an appropriate amount of the test compound and testosterone was taken, and a 1 mM stock solution was prepared with DMSO, which was stored in a refrigerator at 4°C.
Preparation of compound working solution: The 1 mM compound stock solution was taken respectively, and then diluted to 100 µM with acetonitrile-water (v:v = 1:1) to obtain the working solution.
Preparation of NADPH working solution: an appropriate amount of NADPH was weighed and dissolved in 16 mM MgCl2 to prepare a NADPH working solution with a concentration of 4.0 mM.
Preparation of rat liver microsome working solution: an appropriate amount of rat liver microsomes was taken and diluted with PBS to obtain a liver microsome working solution with a concentration of 1 mg/mL.
In the incubation system, 48 µL of PBS, 100 µL of rat liver microsome working solution, and 2 µL of the test compound working solution were sequentially added and mixed well. After pre-incubation at 37°C for 5 min, 50 µL of NADPH was added to initiate the reaction. After incubation for the corresponding time points, an appropriate amount of ice-cold acetonitrile containing an internal standard was added to terminate the reaction. The mixture was vortexed to mix well, centrifuged, and the supernatant was collected. The supernatant was injected into LC-MS/MS for detection of the residual metabolic amount of the compound.
Softwares of Excel, etc. were used for data processing according to the following formula. Ct = C0 •e^(−ke •t) [formula] when Ct = (1)/(2)C0 [formula] , T1/2 = (Ln2)/(ke) = (0.693)/(ke) [formula] CLint(mic) = (0.693)/(In vitro T1/2)•(1)/(mg/mL microsomal protein in reaction system) [formula] CLint(liver) = CLint(mic) •(mg microsomes)/(g liver)•(g liver)/(kg body weight) [formula] CL(liver) = (CLint(liver)×fu×Qh)/(CLint(liver)×fu+Qh) [formula] fu (unbound fraction in blood) was defaulted to be 1.

Series [2] relates to NCI-H358 non-small cell lung cancer cells. In words: Inhibition of NCI-H358 cell proliferation (CellTiter-Glo 3D, 7 days). It counts as cell-based. The conditions noted are these: Homo sapiens, NCI-H358, 168 h, 3D microspheres, read-out: Inhibitory activity against NCI-H358 cell proliferation (IC50). The procedure:
The number of viable cells were detected by CellTiter-Glo 3D® reagent, thereby evaluating the inhibitory effect of compounds on cell proliferation. NCI-H358 non-small cell lung cancer cells (Nanjing cobioer) in the exponential growth phase were digested with trypsin-EDTA, and seeded into 96-well ultra-low attachment microplates at 100 µL per well with a density of 2000 cells/well. The cells were cultured overnight at 37°C with 5% CO2 to form microspheres. The test compounds were serially diluted 5-fold with DMSO to obtain 8 concentration gradient dilutions, then diluted with RPMI-1640 (10% FBS) cell culture medium respectively to obtain compound working solutions (2×). 100 µL per well was added to the cell supernatant, and the culture was continued for 7 days under the conditions of 37°C and 5% CO2. The well plate was removed, and 100 µL of CellTiter-Glo 3D® reagent was added. After lysis at room temperature for 10-30 minutes, 70 µL of the lysate was aspirated and transferred to a white opaque 384-well plate.
The inhibition rate was calculated by the following formula: [formula] Note: The negative control refers to the group without inhibitor, and the blank refers to the group without cells.
The inhibitory activities of some Example compounds and comparative compounds against NCI-H358 cell proliferation are shown in Table 2. Table 2. Inhibitory activity of some Example compounds against NCI-H358 cell proliferation

Molecules are shown by their SMILES. Structures can show the parent of a compound that is named as a salt.

As a reminder, the half-life is the time in which the quantity being followed falls by half. The low end stands for fast loss, the high end for slow loss. In turn, `C[C@@H](Nc1nnc(N2CCN(C)CC2)c2cc(=O)n(C3CC(F)(F)C3)cc12)c1cccc(C(F)F)c1F` [Example 90, (R)-6-(3,3-difluorocyclobutyl)-4-((1-(3-(difluoromethyl)-2-fluorophenyl)ethyl)amino)-1-(4-methylpiperazin-1-yl)pyrido[3,4-d]pyridazin-7(6H)-one] came in with an IC50 against SOS1 of 4.2 nM. In series [1], the half-life at 1 µM stood at 2.32 h and the CLint scaled at 1 µM is 13.5 mL/min/kg. Further, in series [2], the IC50 was 49.8 nM.

Turning to `Cc1c([C@@H](C)Nc2nnc(N3CCN(C(C)C)CC3)c3cc(=O)n(C4(C)CC4)cc23)cccc1C(F)(F)F` [Example 91, (R)-1-(4-isopropylpiperazin-1-yl)-4-((1-(2-methyl-3-(trifluoromethyl)phenyl)ethyl)amino)-6-(1-methylcyclopropyl) pyrido[3,4-d]pyridazin-7(6H)-one], on SOS1, the IC50 is 5.7 nM. In series [1], the half-life at 1 µM was determined as 2.52 h and the CLint scaled at 1 µM was 12.7 mL/min/kg. Moreover, in series [2], the IC50 stood at 38.5 nM.

In the case of `CCN1CCN(c2nnc(N[C@H](C)c3cccc(C(F)(F)F)c3)c3cn(C4(C)CC4)c(=O)cc23)CC1` [Example 156, (R)-1-(4-ethylpiperazin-1-yl)-6-(1-methylcyclopropyl)-4-((1-(3-(trifluoromethyl)phenyl)ethyl)amino)pyr ido[3,4-d]pyridazin-7(6H)-one formate], the IC50 on SOS1 stood at 5.4 nM; in series [2], 47.4 nM.

For `C[C@@H](Nc1nnc(N2CCN(C)CC2)c2cc(=O)n(C3(C)CC3)cc12)c1cccc(C(F)(F)F)c1` [Example 157, (R)-1-(4-methylpiperazin-1-yl)-6-(1-methylcyclopropyl)-4-((1-(3-(trifluoromethyl)phenyl)ethyl)amino)pyr ido[3,4-d]pyridazin-7(6H)-one formate], the IC50 at SOS1 turned out to be 5.1 nM; in series [2], 52.2 nM.

`C[C@@H](Nc1nnc(N2CCN(C)CC2)c2cc(=O)n(C3(C)CC3)cc12)c1cccc(C(F)(F)F)c1F` [Example 164, (R)-4-((1-(2-fluoro-3-(trifluoromethyl)phenyl)ethyl)amino)-6-(1-methylcyclopropyl)-1-(4-methylpiperazin-1-yl)pyrido[3,4-d]pyridazin-7(6H)-one]: the IC50 against SOS1 is 4.2 nM; in series [2] it was 32.8 nM.

As to `CCN1CCN(c2nnc(N[C@H](C)c3cccc(C(F)(F)F)c3F)c3cn(C4(C)CC4)c(=O)cc23)CC1` [Example 168, (R)-1-(4-ethylpiperazin-1-yl)-4-((1-(2-fluoro-3-(trifluoromethyl)phenyl)ethyl)amino)-6-(1-methylcyclopropyl) pyrido[3,4-d]pyridazin-7(6H)-one formate], the IC50 at SOS1 was determined as 4.1 nM; in series [2], 35.5 nM.

For the compound `C[C@@H]1CN(c2nnc(N[C@H](C)c3cccc(C(F)(F)F)c3)c3cn(C4(C)CC4)c(=O)cc23)CCN1C` [Example 176, 1-((R)-3,4-dimethylpiperazin-1-yl)-6-(1-methylcyclopropyl)-4-(((R)-1-(3-(trifluoromethyl)phenyl)ethyl)amino)pyr ido[3,4-d]pyridazin-7(6H)-one formate], the IC50 at SOS1 came out at 6 nM; in series [2] it was 32.3 nM.

For `C[C@@H](Nc1nnc(N2CC3(CCC3)C2)c2cc(=O)n(C3(C)CC3)cc12)c1cccc(C(F)F)c1F` [Example 191, (R)-4-((1-(3-(difluoromethyl)-2-fluorophenyl)ethyl)amino)-6-(1-methylcyclopropyl)-1-(2-azaspiro[3.3]heptan-2-yl)pyrido[3,4-d]pyridazin-7(6H)-one], the IC50 against SOS1 was 4.5 nM; in series [2] it was 39.3 nM.

For `C[C@@H](Nc1nnc(N2CCN3CCCC3C2)c2cc(=O)n(C3(C)CC3)cc12)c1cccc(C(F)F)c1F` (stereo partly drawn) [Example 192, 4-(((R)-1-(3-(difluoromethyl)-2-fluorophenyl)ethyl)amino)-1-(hexahydropyrrolo[1,2-a]pyrazin-2(1H)-yl)-6-(1-methylcyclopropyl) pyrido[3,4-d]pyridazin-7(6H)-one], the IC50 came out at 3.8 nM against SOS1 and 28.8 nM in series [2].

Consider `C[C@@H](Nc1nnc(N2CCN(CCO)CC2)c2cc(=O)n(C3(C)CC3)cc12)c1cccc(C(F)F)c1F` [Example 194, (R)-4-((1-(3-(difluoromethyl)-2-fluorophenyl)ethyl)amino)-1-(4-(2-hydroxyethyl)piperazin-1-yl)-6-(1-methylcyclopropyl) pyrido[3,4-d]pyridazin-7(6H)-one], for which the IC50 came out at 3.9 nM against SOS1 and 44.9 nM in series [2].

With `C[C@@H](Nc1nnc(N2CCN(C)C[C@@H]2C)c2cc(=O)n(C3(C)CC3)cc12)c1cccc(C(F)F)c1F` [Example 195, 4-(((R)-1-(3-(difluoromethyl)-2-fluorophenyl)ethyl)amino)-1-((S)-2,4-dimethylpiperazin-1-yl)-6-(1-methylcyclopropyl) pyrido[3,4-d]pyridazin-7(6H)-one], the IC50 at SOS1 was 3.7 nM; in series [2], 25.6 nM.

For the compound `CCN1CCN(c2nnc(N[C@H](C)c3cccc(C(F)(F)CO)c3)c3cn(C4(C)CC4)c(=O)cc23)CC1` [Example 227, (R)-4-((1-(3-(1,1-difluoro-2-hydroxyethyl)phenyl)ethyl)amino)-1-(4-ethylpiperazin-1-yl)-6-(1-methylcyclopropyl) pyrido[3,4-d]pyridazin-7(6H)-one], the IC50 against SOS1 was determined as 3.8 nM; in series [2] it was 48.2 nM.
